Measured values: PMC12175894 (Science Advances, 2025)
Numbering of substitutions follows the chain as printed. “Also recorded” adds a separate entry of the source. Like-named read-outs stand apart in the source and are kept apart here.

Tests used:
5-HT1AR wt = molecular target: T1, 5-HT1AR wt (Homo sapiens, UniProt P08908); experiment: Radioligand competition, displacement of [3H]WAY100635; format: binding
T1 construct: host or cells: HEK293T, transient; membranes
T1 sequence (P08908 1-422): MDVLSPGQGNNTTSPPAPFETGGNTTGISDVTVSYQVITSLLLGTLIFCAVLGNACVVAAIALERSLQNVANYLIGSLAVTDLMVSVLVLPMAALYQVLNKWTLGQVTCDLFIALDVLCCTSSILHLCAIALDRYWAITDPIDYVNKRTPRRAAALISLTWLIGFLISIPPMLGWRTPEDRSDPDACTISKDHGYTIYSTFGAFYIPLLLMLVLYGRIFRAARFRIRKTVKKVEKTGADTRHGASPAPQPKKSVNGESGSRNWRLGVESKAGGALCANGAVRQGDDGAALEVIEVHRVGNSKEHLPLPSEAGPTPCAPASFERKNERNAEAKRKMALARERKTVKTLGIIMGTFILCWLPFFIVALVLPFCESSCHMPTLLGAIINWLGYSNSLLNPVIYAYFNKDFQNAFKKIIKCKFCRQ

[1] = molecular target: T2, 5-HT1AR F112^3.28W + M92^2.60F (Homo sapiens, UniProt P08908, F112W/M92F); experiment: as above; format: binding; conditions: 5-HT1AR F112W + M92F; HEK 293T membranes; read-out: Ki [nM ± SEM]
T2 sequence (P08908 1-422 M92F/F112W): T1 sequence (P08908 1-422) with M92F, F112W

5-HT1AR F112^3.28W = molecular target: T3, 5-HT1AR F112^3.28W (Homo sapiens, UniProt P08908, F112W); experiment: GloSensor cAMP accumulation in HEK293AΔGi/o; format: cell-based; conditions: read-out: Emax [% ± SEM], cAMP accumulation
T3 sequence (P08908 1-422 F112W): T1 sequence (P08908 1-422) with F112W

5-HT1AR + Gαi2 = molecular target: T4, 5-HT1AR + Gαi2 (Homo sapiens, UniProt P08908); experiment: GloSensor cAMP in HEK293AΔGi/o co-transfected with Gαi2; format: cell-based
T4 construct: host or cells: HEK293AΔGi/o
T4 sequence (P04899 2-355 partner limits assumed, one chain of several): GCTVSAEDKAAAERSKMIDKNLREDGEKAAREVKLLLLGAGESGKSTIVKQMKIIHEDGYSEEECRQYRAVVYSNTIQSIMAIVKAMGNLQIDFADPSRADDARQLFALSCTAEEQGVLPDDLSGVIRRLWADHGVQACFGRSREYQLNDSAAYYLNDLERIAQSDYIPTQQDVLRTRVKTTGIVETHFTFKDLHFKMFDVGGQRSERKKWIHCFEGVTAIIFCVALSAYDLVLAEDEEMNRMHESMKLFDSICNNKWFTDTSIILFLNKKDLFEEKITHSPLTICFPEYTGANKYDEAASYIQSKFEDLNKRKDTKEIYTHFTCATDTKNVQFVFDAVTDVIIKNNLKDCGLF

mice = experiment: Conditioned place preference; format: in vivo, mouse; conditions: 10 mg/kg i.p.
5-HT1AR [2] = molecular target: T5, 5-HT1AR (Homo sapiens, UniProt P08908); experiment: cell-based
T5 sequence (P08908 1-422): T1 sequence (P08908 1-422)

α2AR = α2AR (Homo sapiens, UniProt P08913); experiment: BRET Gαi1 activation
Sequence of α2AR (P08913 whole entry): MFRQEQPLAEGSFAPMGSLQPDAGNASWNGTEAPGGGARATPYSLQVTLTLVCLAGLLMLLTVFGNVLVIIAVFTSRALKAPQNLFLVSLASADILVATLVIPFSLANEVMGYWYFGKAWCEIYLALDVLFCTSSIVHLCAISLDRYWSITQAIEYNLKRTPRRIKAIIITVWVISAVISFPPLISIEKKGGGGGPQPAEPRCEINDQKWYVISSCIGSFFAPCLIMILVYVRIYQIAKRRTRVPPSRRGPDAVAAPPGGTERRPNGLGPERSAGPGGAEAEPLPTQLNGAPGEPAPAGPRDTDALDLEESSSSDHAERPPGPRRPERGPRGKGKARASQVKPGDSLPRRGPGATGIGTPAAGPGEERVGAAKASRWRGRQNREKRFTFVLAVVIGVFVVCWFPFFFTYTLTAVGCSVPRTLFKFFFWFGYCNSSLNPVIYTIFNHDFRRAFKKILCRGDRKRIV

α2BR = α2BR (Homo sapiens, UniProt P18089); experiment: BRET Gαi1 activation
Sequence of α2BR (P18089 whole entry): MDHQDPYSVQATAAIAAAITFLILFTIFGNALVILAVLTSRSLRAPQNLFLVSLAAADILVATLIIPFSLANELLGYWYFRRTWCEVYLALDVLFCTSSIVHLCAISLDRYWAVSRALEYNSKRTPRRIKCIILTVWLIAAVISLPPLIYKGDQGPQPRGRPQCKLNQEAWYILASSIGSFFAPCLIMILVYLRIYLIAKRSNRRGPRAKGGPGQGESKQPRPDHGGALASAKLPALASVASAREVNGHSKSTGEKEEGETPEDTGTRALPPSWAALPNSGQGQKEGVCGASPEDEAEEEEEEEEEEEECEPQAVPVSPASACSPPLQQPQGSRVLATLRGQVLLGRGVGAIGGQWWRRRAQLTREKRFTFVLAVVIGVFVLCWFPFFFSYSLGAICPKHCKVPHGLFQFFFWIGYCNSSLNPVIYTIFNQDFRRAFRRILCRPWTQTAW

α2CR = α2CR (Homo sapiens, UniProt P18825); experiment: BRET Gαi1 activation
Sequence of α2CR (P18825 whole entry): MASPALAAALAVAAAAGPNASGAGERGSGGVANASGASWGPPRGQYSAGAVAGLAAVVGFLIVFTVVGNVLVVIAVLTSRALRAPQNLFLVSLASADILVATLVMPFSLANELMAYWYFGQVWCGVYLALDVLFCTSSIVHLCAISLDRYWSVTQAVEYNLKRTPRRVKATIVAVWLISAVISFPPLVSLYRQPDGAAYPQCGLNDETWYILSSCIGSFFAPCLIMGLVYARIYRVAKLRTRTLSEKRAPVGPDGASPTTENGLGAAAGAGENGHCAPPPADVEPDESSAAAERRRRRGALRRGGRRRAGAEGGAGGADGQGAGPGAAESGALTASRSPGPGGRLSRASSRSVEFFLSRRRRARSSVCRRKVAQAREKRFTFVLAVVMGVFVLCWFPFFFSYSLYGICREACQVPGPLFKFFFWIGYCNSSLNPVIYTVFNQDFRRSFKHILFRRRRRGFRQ

adrenergic α2A = adrenergic α2A (Homo sapiens, UniProt P08913); experiment: Radioligand displacement, [3H]RX821002
Sequence of adrenergic α2A (P08913 whole entry): as the sequence (P08913 whole entry) above

adrenergic β1 = adrenergic β1 (Homo sapiens, UniProt P08588); experiment: Radioligand displacement, [3H]CGP12177
Sequence of adrenergic β1 (P08588 whole entry): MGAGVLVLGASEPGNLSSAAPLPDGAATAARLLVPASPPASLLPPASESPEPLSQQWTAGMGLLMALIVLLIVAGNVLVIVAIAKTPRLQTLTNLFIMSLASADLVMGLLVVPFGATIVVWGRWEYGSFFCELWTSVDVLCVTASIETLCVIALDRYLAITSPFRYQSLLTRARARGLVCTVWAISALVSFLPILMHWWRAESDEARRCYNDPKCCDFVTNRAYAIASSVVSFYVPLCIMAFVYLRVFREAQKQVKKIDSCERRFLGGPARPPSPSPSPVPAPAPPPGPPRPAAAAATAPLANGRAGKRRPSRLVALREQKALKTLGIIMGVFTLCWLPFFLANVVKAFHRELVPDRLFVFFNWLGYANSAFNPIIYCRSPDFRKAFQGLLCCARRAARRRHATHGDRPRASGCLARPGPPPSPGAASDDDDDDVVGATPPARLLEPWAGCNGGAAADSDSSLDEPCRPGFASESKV

neurotensin NTS1 = neurotensin NTS1 (Homo sapiens, UniProt P30989); experiment: Radioligand displacement, [3H]NT(8-13)
Sequence of neurotensin NTS1 (P30989 whole entry): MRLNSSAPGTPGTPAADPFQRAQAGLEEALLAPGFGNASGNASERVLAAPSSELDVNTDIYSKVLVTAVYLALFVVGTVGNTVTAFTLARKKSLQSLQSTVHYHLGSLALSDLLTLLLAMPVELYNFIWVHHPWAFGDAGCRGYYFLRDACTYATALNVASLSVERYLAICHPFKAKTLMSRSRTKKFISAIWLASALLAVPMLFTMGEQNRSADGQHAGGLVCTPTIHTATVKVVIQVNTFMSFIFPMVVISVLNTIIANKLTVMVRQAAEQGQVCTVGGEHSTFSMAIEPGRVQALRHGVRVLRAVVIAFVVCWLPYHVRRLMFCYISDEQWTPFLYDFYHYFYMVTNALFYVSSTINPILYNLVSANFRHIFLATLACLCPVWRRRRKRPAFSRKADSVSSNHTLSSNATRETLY

opioid µOR = opioid µOR (Homo sapiens, UniProt P35372); experiment: Radioligand displacement, [3H]diprenorphine
Sequence of opioid µOR (P35372 whole entry): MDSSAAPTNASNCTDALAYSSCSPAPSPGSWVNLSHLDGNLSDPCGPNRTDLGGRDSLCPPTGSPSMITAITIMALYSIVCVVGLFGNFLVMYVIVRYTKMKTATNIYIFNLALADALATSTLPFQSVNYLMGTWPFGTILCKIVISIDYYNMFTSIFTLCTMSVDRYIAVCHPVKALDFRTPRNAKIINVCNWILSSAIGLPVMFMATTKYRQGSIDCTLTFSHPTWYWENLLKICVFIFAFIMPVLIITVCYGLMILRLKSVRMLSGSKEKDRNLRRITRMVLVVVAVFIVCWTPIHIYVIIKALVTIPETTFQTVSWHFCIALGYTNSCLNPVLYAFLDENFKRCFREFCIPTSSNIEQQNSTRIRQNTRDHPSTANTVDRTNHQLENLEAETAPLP

opioid δOR = opioid δOR (Homo sapiens, UniProt P41143); experiment: Radioligand displacement, [3H]diprenorphine
Sequence of opioid δOR (P41143 whole entry): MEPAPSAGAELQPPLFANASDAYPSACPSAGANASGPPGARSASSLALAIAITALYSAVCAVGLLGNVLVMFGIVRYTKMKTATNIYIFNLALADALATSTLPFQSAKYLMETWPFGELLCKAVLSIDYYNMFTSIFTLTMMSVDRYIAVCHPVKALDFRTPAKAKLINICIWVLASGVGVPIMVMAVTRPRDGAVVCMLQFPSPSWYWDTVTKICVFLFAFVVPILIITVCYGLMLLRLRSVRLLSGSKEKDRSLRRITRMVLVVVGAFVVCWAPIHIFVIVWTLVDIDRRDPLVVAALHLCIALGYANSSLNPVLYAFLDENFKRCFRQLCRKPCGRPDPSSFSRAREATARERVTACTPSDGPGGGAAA

5-HT1AR [3] = molecular target: T5, 5-HT1AR; experiment: β-arrestin 1 recruitment, enhanced bystander BRET in HEK293T with GRK2; conditions: HEK-293T, read-out: Emax, β-arrestin 1 recruitment
5-HT1AR [4] = molecular target: T5, 5-HT1AR; format: cell-based; set-up: host or cells: HEK293T, HEK293A, HEK293AΔGs, HEK293AΔGi/o, HEK293AΔARRB1/B2; conditions: HEK293AΔGi/o, GloSensor
5-HT1AR wildtype = molecular target: T6, 5-HT1AR wildtype (Homo sapiens, UniProt P08908); experiment: GloSensor cAMP accumulation in HEK293AΔGi/o; format: cell-based; conditions: read-out: Emax [% ± SEM], cAMP accumulation
T6 construct: host or cells: HEK293T, HEK293A, HEK293AΔGs, HEK293AΔGi/o, HEK293AΔARRB1/B2
T6 sequence (P08908 1-422): T1 sequence (P08908 1-422)

## COc1ccccc1OCCNCCCOc1ccc2c(c1)NC(=O)CO2 [ST171]
5-HT1AR wt; 5-HT1A, read-out: pKi (converted)
  Ki: 0.369 nM
5-HT1AR wt; 5-HT1AR wt, membranes from transiently transfected HEK 293T cells, read-out: Ki [nM ± SEM]
  Ki: 0.41 nM
[1]
  Ki: 0.044 nM
5-HT1AR F112^3.28W
  Emax: < 5%
5-HT1AR + Gαi2
  Emax: 57 ± 7%
5-HT1AR + Gαi2; HEK293AΔGi/o + Gαi2, read-out: EC50 [nM ± SEM], inhibition of cAMP accumulation
  EC50: 4.4 ± 1 nM
mice
  conditioned place preference (rewarding properties): rewarding; also recorded: induces CPP
5-HT1AR [2]
  EC50: 1.6 nM
α2AR
  intrinsic activity: devoid of intrinsic activity
α2BR
  intrinsic activity: devoid of intrinsic activity
α2CR
  intrinsic activity: devoid of intrinsic activity
Adrenergic α2A; Ki [nM ± SD]
  Ki: 260 nM
Adrenergic α2A; pKi
  Ki: 204 nM
Adrenergic β1; Ki [nM ± SD]
  Ki: 1700 ± 350 nM
Adrenergic β1; pKi
  Ki: 1630 nM
Neurotensin NTS1; Ki [nM ± SD]
  Ki: > 50000 nM
Neurotensin NTS1; pKi
  Ki: > 50100 nM
Opioid µOR; Ki [nM ± SD], µOR
  Ki: 8600 ± 2100 nM
Opioid µOR; Ki, opioid receptor family
  Ki: > 5000 nM
Opioid µOR; pKi, µOR
  Ki: 8430 nM
Opioid δOR; Ki [nM ± SD]
  Ki: 24000 ± 3500 nM
Opioid δOR; pKi
  Ki: 23400 nM
5-HT1AR [3]
  Emax: < 5%
5-HT1AR [4]
  IC50: 3.9 ± 0.8 nM

## Cc1ccc(CNCC2(F)CCN(C(=O)c3ccc(F)c(Cl)c3)CC2)nc1 [befiradol, reference compound]
5-HT1AR wildtype
  Emax: 74 ± 3%
